In ChEMBL document CHEMBL3525943, “Regiospecific and stereospecific triangulation of the structures of metabolites formed by sequential metabolism at multiple prochiral centers” (Drug Metab Dispos, 2012):

How the values were obtained:
Conditions in all cases: in vivo; call rule not given here
[1] = Drug level in Sprague-Dawley rat urine treated with [14C]-(S)-2-((1R,2S,4R,5S)-5-hydroxybicyclo[2.2.1]heptan-2-ylamino)-5-isopropyl-5-methylthiazol-4(5H)-one at 5 mg/kg, po measured over 48 hrs by LC-MS/MS analysis; type: ADME, organism-based; parameters: dose 5 mg/kg, route oral
Rattus norvegicus [2] = test: Total drug recovery in female Sprague-Dawley rat treated with [14C]-AMG 221 at 2 mg/kg, po measured over 48 hrs by liquid scintillation counting analysis; type: ADME, organism-based; parameters: dose 2 mg/kg, route oral
[3] = Retention time of the compound in Beagle dog urine treated with [14C]-AMG 221 at 2 mg/kg, po measured over 24 hrs by LC-MS/HPLC radiometric analysis; type: ADME, organism-based, Canis lupus familiaris; parameters: dose 2 mg/kg, route oral
[4] = Drug level in Sprague-Dawley rat urine at 2 mg/kg, po measured over 24 hrs by LC-MS/HPLC radiometric analysis; type: ADME, organism-based; parameters: dose 2 mg/kg, route oral
[5] = Drug metabolism in Sprague-Dawley rat urine assessed as formation of (S)-2-((1R,2S,4R,5R)-5-hydroxybicyclo[2.2.1]heptan-2-ylamino)-5-isopropyl-5-methylthiazol-4(5H)-one at 2 mg/kg, po measured over 24 hrs by LC-MS/HPLC radiometric analysis; type: ADME, organism-based; parameters: dose 2 mg/kg, route oral
Plasma [6] = test: Drug metabolism in Sprague-Dawley rat plasma assessed as formation of (S)-2-((1R,2S,4R,5R)-5-hydroxybicyclo[2.2.1]heptan-2-ylamino)-5-isopropyl-5-methylthiazol-4(5H)-one at 2 mg/kg, po measured at 0.5 hrs by LC-MS/HPLC radiometric analysis; type: ADME, organism-based; parameters: dose 2 mg/kg, route oral
Plasma [7] = test: Drug metabolism in Sprague-Dawley rat plasma assessed as formation of (S)-2-((1S,2S,4R)-bicyclo[2.2.1]heptan-2-ylamino)-5-((R)-1-hydroxypropan-2-yl)-5-methylthiazol-4(5H)-one at 2 mg/kg, po measured at 0.5 hrs by LC-MS/HPLC radiometric analysis; type: ADME, organism-based; parameters: dose 2 mg/kg, route oral
[8] = Drug metabolism in Sprague-Dawley rat urine assessed as formation of (S)-2-((1S,2S,4R,6R)-6-hydroxybicyclo[2.2.1]heptan-2-ylamino)-5-((S)-1-hydroxypropan-2-yl)-5-methylthiazol-4(5H)-one at 2 mg/kg, po measured over 24 hrs by LC-MS/HPLC radiometric analysis; type: ADME, organism-based; parameters: route oral, dose 2 mg/kg
[9] = Drug metabolism in Sprague-Dawley rat feces assessed as formation of trihydroxy norbornyl metabolite at 2 mg/kg, po measured over 24 hrs by LC-MS/HPLC radiometric analysis; type: ADME, organism-based; parameters: dose 2 mg/kg, route oral
[10] = Drug metabolism in Sprague-Dawley rat urine assessed as formation of (S)-2-((1S,2S,4R)-bicyclo[2.2.1]heptan-2-ylamino)-5-((R)-1-hydroxypropan-2-yl)-5-methylthiazol-4(5H)-one at 2 mg/kg, po measured over 24 hrs by LC-MS/HPLC radiometric analysis; type: ADME, organism-based; parameters: dose 2 mg/kg, route oral
[11] = Drug metabolism in Sprague-Dawley rat urine assessed as formation of (S)-2-((1R,2S,4R,5S)-5-hydroxybicyclo[2.2.1]heptan-2-ylamino)-5-((S)-1-hydroxypropan-2-yl)-5-methylthiazol-4(5H)-one at 2 mg/kg, po measured over 24 hrs by LC-MS/HPLC radiometric analysis; type: ADME, organism-based; parameters: dose 2 mg/kg, route oral
[12] = Drug recovery in feces of Sprague-Dawley rat at 2 mg/kg, po measured over 48 hrs by liquid scintillation counting analysis; type: ADME, organism-based; parameters: dose 2 mg/kg, route oral
[13] = Drug metabolism in Sprague-Dawley rat urine assessed as formation of (S)-2-((1R,2S,4R,5S)-5-hydroxybicyclo[2.2.1]heptan-2-ylamino)-5-isopropyl-5-methylthiazol-4(5H)-one at 2 mg/kg, po measured over 24 hrs by LC-MS/HPLC radiometric analysis; type: ADME, organism-based; parameters: dose 2 mg/kg, route oral
[14] = Drug level in Sprague-Dawley rat feces at 2 mg/kg, po measured over 24 hrs by LC-MS/HPLC radiometric analysis; type: ADME, organism-based; parameters: dose 2 mg/kg, route oral
[15] = Drug metabolism in Sprague-Dawley rat urine assessed as formation of trihydroxy norbornyl metabolite at 2 mg/kg, po measured over 24 hrs by LC-MS/HPLC radiometric analysis; type: ADME, organism-based; parameters: dose 2 mg/kg, route oral
Plasma [16] = test: Drug metabolism in Sprague-Dawley rat plasma assessed as formation of (S)-2-((1R,2S,4R,5S)-5-hydroxybicyclo[2.2.1]heptan-2-ylamino)-5-isopropyl-5-methylthiazol-4(5H)-one at 2 mg/kg, po measured at 0.5 hrs by LC-MS/HPLC radiometric analysis; type: ADME, organism-based; parameters: dose 2 mg/kg, route oral
Plasma [17] = test: Drug metabolism in Sprague-Dawley rat plasma assessed as formation of (S)-5-isopropyl-5-methyl-2-((1R,2S,4R)-5-oxobicyclo[2.2.1]heptan-2-ylamino)thiazol-4(5H)-one at 2 mg/kg, po measured at 0.5 hrs by LC-MS/HPLC radiometric analysis; type: ADME, organism-based; parameters: dose 2 mg/kg, route oral
[18] = Drug metabolism in Sprague-Dawley rat urine assessed as formation of (S)-5-isopropyl-5-methyl-2-((1R,2S,4R)-5-oxobicyclo[2.2.1]heptan-2-ylamino)thiazol-4(5H)-one at 2 mg/kg, po measured over 24 hrs by LC-MS/HPLC radiometric analysis; type: ADME, organism-based; parameters: dose 2 mg/kg, route oral
[19] = Drug metabolism in Sprague-Dawley rat urine assessed as formation of (S)-2-((1R,2S,4R,5S)-5-hydroxybicyclo[2.2.1]heptan-2-ylamino)-5-(2-hydroxypropan-2-yl)-5-methylthiazol-4(5H)-one at 2 mg/kg, po measured over 24 hrs by LC-MS/HPLC radiometric analysis; type: ADME, organism-based; parameters: dose 2 mg/kg, route oral
[20] = Drug metabolism in Sprague-Dawley rat feces assessed as formation of (1R,2R,4R,5S)-5-((S)-5-isopropyl-5-methyl-4-oxo-4,5-dihydrothiazol-2-ylamino)bicyclo[2.2.1]heptan-2-yl hydrogen sulfate at 2 mg/kg, po measured over 24 hrs by LC-MS/HPLC radiometric analysis; type: ADME, organism-based; parameters: dose 2 mg/kg, route oral
Plasma [21] = test: Drug level in Sprague-Dawley rat plasma at 2 mg/kg, po measured at 0.5 hrs by LC-MS/HPLC radiometric analysis; type: ADME, organism-based; parameters: dose 2 mg/kg, route oral
[22] = Drug metabolism in Sprague-Dawley rat urine assessed as formation of (S)-2-((1S,2S,4R,6R)-6-hydroxybicyclo[2.2.1]heptan-2-ylamino)-5-isopropyl-5-methylthiazol-4(5H)-one at 2 mg/kg, po measured over 24 hrs by LC-MS/HPLC radiometric analysis; type: ADME, organism-based; parameters: dose 2 mg/kg, route oral
Rattus norvegicus [23] = test: Total drug recovery in Sprague-Dawley rat at 2 mg/kg, po measured over 48 hrs by liquid scintillation counting analysis; type: ADME, organism-based; parameters: dose 2 mg/kg, route oral
Plasma [24] = test: Drug metabolism in Sprague-Dawley rat plasma assessed as formation of (S)-2-((1S,2S,4R)-bicyclo[2.2.1]heptan-2-ylamino)-5-((S)-1-hydroxypropan-2-yl)-5-methylthiazol-4(5H)-one at 2 mg/kg, po measured at 0.5 hrs by LC-MS/HPLC radiometric analysis; type: ADME, organism-based; parameters: dose 2 mg/kg, route oral
[25] = Drug recovery in urine of Sprague-Dawley rat at 2 mg/kg, po measured over 48 hrs by liquid scintillation counting analysis; type: ADME, organism-based; parameters: dose 2 mg/kg, route oral
[26] = Drug recovery in bile of bile duct cannulated Sprague-Dawley rat at 5 mg/kg, po measured over 48 hrs by liquid scintillation counting analysis; type: ADME, organism-based; parameters: dose 5 mg/kg, route oral
[27] = Drug metabolism in Sprague-Dawley rat urine assessed as formation of (S)-5-isopropyl-5-methyl-2-((1R,2S,4R)-5-oxobicyclo[2.2.1]heptan-2-ylamino)thiazol-4(5H)-one at 5 mg/kg, po measured over 24 hrs by LC-MS/HPLC radiometric analysis; type: ADME, organism-based; parameters: dose 5 mg/kg, route oral
[28] = Drug metabolism in Sprague-Dawley rat urine assessed as formation of (S)-2-((1R,2S,4R,5S)-5-hydroxybicyclo[2.2.1]heptan-2-ylamino)-5-((R)-1-hydroxypropan-2-yl)-5-methylthiazol-4(5H)-one at 5 mg/kg, po measured over 24 hrs by LC-MS/HPLC radiometric analysis; type: ADME, organism-based; parameters: dose 5 mg/kg, route oral
Plasma [29] = test: Drug level in Sprague-Dawley rat plasma at 5 mg/kg, po measured after 72 hrs by liquid scintillation counting analysis; type: ADME, organism-based; parameters: dose 5 mg/kg, route oral
[30] = Drug metabolism in Sprague-Dawley rat urine assessed as formation of (2S,3S,4S,5R)-3,4,5-trihydroxy-6-((1R,2S,4R,5S)-5-((S)-5-isopropyl-5-methyl-4-oxo-4,5-dihydrothiazol-2-ylamino)bicyclo[2.2.1]heptan-2-yloxy)tetrahydro-2H-pyran-2-carboxylic acid at 5 mg/kg, po measured over 48 hrs by LC-MS/HPLC radiometric analysis; type: ADME, organism-based; parameters: dose 5 mg/kg, route oral
[31] = Drug metabolism in Sprague-Dawley rat urine assessed as formation of (S)-2-((1R,2S,4R,5S)-5-hydroxybicyclo[2.2.1]heptan-2-ylamino)-5-(2-hydroxypropan-2-yl)-5-methylthiazol-4(5H)-one at 5 mg/kg, po measured over 24 hrs by LC-MS/HPLC radiometric analysis; type: ADME, organism-based; parameters: dose 5 mg/kg, route oral
[32] = Drug metabolism in Sprague-Dawley rat urine assessed as formation of (S)-2-((1R,2S,4R,5R)-5-hydroxybicyclo[2.2.1]heptan-2-ylamino)-5-((S)-1-hydroxypropan-2-yl)-5-methylthiazol-4(5H)-one at 5 mg/kg, po measured over 24 hrs by LC-MS/HPLC radiometric analysis; type: ADME, organism-based; parameters: dose 5 mg/kg, route oral
[33] = Drug recovery in urine of bile duct cannulated Sprague-Dawley rat at 5 mg/kg, po measured over 48 hrs by liquid scintillation counting analysis; type: ADME, organism-based; parameters: dose 5 mg/kg, route oral
[34] = Drug recovery in urine of Sprague-Dawley rat at 5 mg/kg, po measured after 72 hrs by liquid scintillation counting analysis; type: ADME, organism-based; parameters: dose 5 mg/kg, route oral
[35] = Drug recovery in feces of Sprague-Dawley rat at 5 mg/kg, po measured after 72 hrs by liquid scintillation counting analysis; type: ADME, organism-based; parameters: dose 5 mg/kg, route oral
[36] = Drug level in Sprague-Dawley rat feces treated with [14C]AMG221 at 2 mg/kg, po measured over 24 hrs by LC-MS/HPLC radiometric analysis; type: ADME, organism-based; parameters: dose 2 mg/kg, route oral
[37] = Retention time of the compound in Sprague-Dawley rat feces treated with [14C]-AMG 221 at 2 mg/kg, po measured over 48 hrs by LC-MS/HPLC radiometric analysis; type: ADME, organism-based; parameters: dose 2 mg/kg, route oral
[38] = Drug excretion in male Sprague-Dawley rat feces treated with [14C]-AMG 221 at 2 mg/kg, po measured over 24 hrs by LC-MS/HPLC radiometric analysis; type: ADME, organism-based; parameters: dose 2 mg/kg, route oral
[39] = Drug excretion in female Sprague-Dawley rat feces treated with [14C]-AMG 221 at 2 mg/kg, po measured over 24 hrs by LC-MS/HPLC radiometric analysis; type: ADME, organism-based; parameters: dose 2 mg/kg, route oral

CC(C)[C@]1(C)SC(N[C@H]2C[C@H]3C[C@@H]2C[C@@H]3O[C@@H]2O[C@H](C(=O)O)[C@@H](O)[C@H](O)[C@H]2O)=NC1=O
Drug metabolism [1]: metabolite_detected | Drug recovery (Rattus norvegicus [2]): 0.2% | Retention_time [3]: 20.6 min

CC(C)[C@]1([14CH3])SC(N[C@H]2C[C@@H]3CC[C@H]2C3)=NC1=O
Drug uptake [4]: Not Active | Drug metabolism [5]: metabolite_detected | Drug metabolism (Plasma [6]): metabolite_detected | Drug metabolism (Plasma [7]): metabolite_detected | Drug metabolism [8]: metabolite_detected | Drug metabolism [9]: metabolite_detected | Drug metabolism [10]: metabolite_detected | Drug metabolism [11]: metabolite_detected | Drug recovery [12]: 14% | Drug metabolism [13]: metabolite_detected | Drug uptake [14]: Not Active | Drug metabolism [15]: metabolite_detected | Drug metabolism (Plasma [16]): metabolite_detected | Drug metabolism (Plasma [17]): metabolite_detected | Drug metabolism [18]: metabolite_detected | Drug metabolism [19]: metabolite_detected | Drug metabolism [20]: metabolite_detected | Drug uptake (Plasma [21]): Active | Drug metabolism [22]: metabolite_detected | Drug recovery (Rattus norvegicus [23]): 81% | Drug metabolism (Plasma [24]): metabolite_detected | Drug recovery [25]: 64%

CC(C)[C@]1([14CH3])SC(N[C@H]2C[C@H]3C[C@@H]2C[C@@H]3O)=NC1=O
Drug recovery [26]: 10% | Drug uptake [4]: Active | Drug metabolism [27]: metabolite_detected | Drug metabolism [28]: metabolite_detected | Drug uptake (Plasma [29]): Active | Drug metabolism [30]: metabolite_detected | Drug metabolism [31]: metabolite_detected | Drug metabolism [32]: metabolite_detected | Drug recovery [33]: 55% | Drug recovery [34]: 89% | Drug recovery [35]: 7%

CC(C)[C@]1(C)SC(N[C@H]2C[C@H]3C[C@@H]2C[C@@H]3OS(=O)(=O)O)=NC1=O
Drug metabolism [36]: metabolite_detected | Retention_time [37]: 23.2 min | Drug excretion [38]: metabolite_not_detected | Drug recovery (Rattus norvegicus [2]): 6% | Drug excretion [39]: 6%
